# Test results as given in US20250295609A1, “COMPOUND HAVING ANTI-ANDROGEN RECEPTOR ACTIVITY, AND USE THEREOF” (NANJING MINOVA PHARMACEUTICAL CO., LTD., priority 2022, published 2025).
# Test system: alopecia mouse model
# Assay: Hair growth promotion test in mice with alopecia (testosterone propionate model)
# Type: in vivo, C57BL/6 mice
# Protocol: The compounds of the present disclosure were tested for their hair growth-promoting effects on an alopecia mouse model.
# C57BL/6 mice (purchased from SPF (Beijing) Biotechnology Co., Ltd., production license No.: SCXK (Beijing) 2019-0010), test compounds (prepared by the method of the present disclosure), rosin (Shanghai YuanYe Bio-Technology Co., Ltd., lot No. Y18M10C83144), liquid paraffin (Shanghai YuanYe Bio-Technology Co., Ltd., lot No.: Z22S11Y125555), chloral hydrate (Sinopharm Chemical Reagent Co., Ltd., lot No.: 20190823, a 2% chloral hydrate solution was prepared by using a 0.9% sodium chloride solution before use), testosterone propionate (Aladdin Reagent (Shanghai) Co., Ltd., lot No.: T101368, a 0.5% testosterone propionate solution was prepared by using an a soybean oil for injection before use), soybean oil for injection (Liaoning Shinsun Pharmaceutical Co., Ltd., lot No.: NMPA Approval No. H21024303), paraformaldehyde (Xilong Scientific Co., Ltd., lot No.: 1705022), a 0.9% sodium chloride solution (Jiangsu Huai'an Shuanghe Pharmaceutical Co., Ltd., lot No.: 210322-3C), an electronic balance (Beijing Sartorius Scientific Instruments Co., Ltd., model: BS224 S; GZX-9140MBE), and a digital display electric heating constant temperature air blast drying oven (Shanghai Boxun Medical Biological Instrument Corp.).
# 8-week-old male C57BL/6 mice were selected and injected with 2% chloral hydrate (400 mg/kg) for anesthesia. Equal amounts of rosin and paraffin were weighed out, heated, and mixed well. The mixture was applied on the front back of the mice in an area of about 2 cm×2.5 cm. After the mixture was cooled to be hard, the solidified hair was torn off by tweezers gently.
# Qualified C57BL/6 mice (3 mice per group) were randomly assigned to a blank group, a model group, a positive control drug group (7.5% clascoterone group), and test groups (including 0.3% compound 8 group and 0.3% compound 7 group). Mice in the blank group were coated with 0.1 mL of normal saline in the depilated area every morning (1 time a day for 17 consecutive days); mice in the model group were coated with 0.1 mL of 0.5% testosterone propionate solution in the depilated area every morning (1 time a day, starting on the first day, for 17 consecutive days), and with 0.5 mL of the control solvent in the depilated area every afternoon (1 time a day, starting on the second day, for 16 consecutive days); mice in the positive control drug group were coated with 0.1 mL of 0.5% testosterone propionate solution in the depilated area every morning (1 time a day, starting on the first day, for 17 consecutive days), and with 0.5 mL of 7.5% clascoterone solution in the depilated area every afternoon (1 time a day, starting on the second day, for 16 consecutive days); and mice in the test groups were coated with 0.1 mL of 0.5% testosterone propionate solution in the depilated area every morning (1 time a day, starting on the first day, for 17 consecutive days), and with 0.5 mL of 0.3% test compound solution in the depilated area every afternoon (1 time a day, starting on the second day, for 16 consecutive days). The formula of the test compound solution was 0.3% test compound, 40% DMSO, 30% ethanol, and the balance of water; the formula of the control solvent was 40% DMSO, 30% ethanol, and the balance of water; the formula of the positive control drug group was 7.5% clascoterone, 40% DMSO, 30% ethanol, and the balance of water. The hair regrowth in the depilated area of the mice in each group was observed and photographed 16 days after the start of topical administration of the test compound solution.
# On day 18 of the test, 5 new hairs were pulled out from the back depilated area of each mouse in each group, the lengths of the hairs were measured using a vernier caliper, and the lengths of the hairs of the mice in each group were counted. The skin of the depilated area of the mice in each group was cut out, and hematoxylin-eosin staining (HE staining) was performed. […]
structure (smiles),measurement,setting,value
"CCC(=O)O[C@]1(C(=O)CO)CC[C@H]2[C@@H]3CCC4=CC(=O)CC[C@]4(C)[C@H]3CC[C@@]21C [clascoterone, reference compound]",hair growth and number of hair follicles compared to the model group (in words),"alopecia mouse model, FIG. 3",significantly grown hairs and the number of hair follicles was significantly increased
same,Number of hair follicles (X ± SD),"day 18, per field (×100), HE staining, topical once daily for 16 days",53.533 ± 24.929
same,Hair length (X ± SD),"day 18, topical once daily for 16 days, testosterone propionate alopecia mice",5.649 ± 0.059 mm
